How the values were obtained:
Format in all cases: cell-based
Moraxella sp. KMC4-1 [1] = assay: Bactericidal test; settings: 10^6 CFU/mL, 2 hours, 25° C.; Substance (1) 10 ppm, (2)(3)(5)(6) 100 ppm, (4) 500 ppm
Description: To 5 mL of a test solution in which the substances (1) to (7) each were added so as to be the final concentration described in Table 15, the precultured Moraxella sp. KMC4-1 was inoculated so as to be the concentration of 10^6 CFU/mL and cultured for 2 hours at 25° C. while shaking (160 rpm). After that, it was subjected to serial dilution using LP dilution solution (NIHON PHARMACEUTICAL CO., LTD). Then, by using SCD-LP agar medium (NIHON PHARMACEUTICAL CO., LTD), the number of bacteria remained alive was determined.
(§1) As for the growth-inhibitory and the bactericidal effect, the evaluation was made as follows: compared to the control, when there was the bacteria number decrease of log 3 or more, it was rated as “A”; when there was the bacteria number decrease of log 1 or more but less than log 3, it was rated as “B”; and when there was the bacteria number decrease of less than log 1, it was rated as “C”.

Moraxella sp. KMC4-1 [2] = assay: Growth-inhibitory test; settings: SCD liquid medium, 24 hours, 35° C., (4) 500 ppm; for Growth-inhibitory effect: initial 10^4 CFU/mL, Substance (1) 10 ppm, (2)(3)(5)(6) 100 ppm; for Growth-inhibitory effect: bacteria number decrease compared to the control: Substance (2) 100 ppm
Description: To 4 mL of SCD liquid medium (manufactured by NIHON PHARMACEUTICAL CO., LTD), the substances (1) to (7) each were added so as to be the final concentration described in Table 15. As a control, a medium system not added with any test substance was also prepared. To the medium, the precultured Moraxella sp. KMC4-1 was inoculated so as to be the initial concentration of 10^4 CFU/mL and cultured for 24 hours at 35° C. while shaking (160 rpm). After that, it was subjected to serial dilution using LP dilution solution (NIHON PHARMACEUTICAL CO., LTD). Then, by using SCD-LP agar medium (NIHON PHARMACEUTICAL CO., LTD), the number of bacteria remained alive was determined.
as §1

Moraxella sp. KMC4-1 [3] = assay: Quantification of 4M3H produced in model examination cloth (LC-FL); settings: for Ratio of suppressing 4M3H production: cotton cloth with 0.5 mg 14-methylhexadecanoic acid, 24 hours, 37° C., relative to no test substance, Substance (1) 10 ppm, (2)(3)(5)(6) 100 ppm, (4) 500 ppm; for 4M3H production inhibition ratio: summary of Table 14
Description: Subsequently, by using Moraxella sp. KMC4-1, which is one kind of the microorganisms which produce damp-dry malodor-causing substances, sensory evaluation of the inhibitory effect on damp-dry malodor by the test substance and measurement of production amount of 4M3H as one kind of the damp-dry malodor-causing substances were carried out.
Moraxella sp. KMC4-1 was inoculated as a test microbe onto SCD-LP agar medium (manufactured by Wako Pure Chemical Industries, Ltd.) and cultured for 1 to 2 weeks at room temperature to give a pre-culture plate. Colony surface was scraped off from the pre-culture plate, suspended in 5 mL of physiological saline, and OD600 was adjusted to 1.0 (about 10^8 CFU/mL).
A cotton jersey cloth obtained in a constant state after sterilization and drying at 25° C., 40% RH (cotton jersey manufactured by Shikisensha Colo., LTD., without silket finish) was cut to a square of 2 cm×2 cm. To the cloth, a solution prepared by dissolving 0.5 mg of 14-methylhexadecanoic acid, as a sebaceous dirt component, in 0.1 mL methanol, was applied. Then, methanol was dried to solid, to give a model examination cloth.
[…] It was then dried for 2 hours at room temperature to dry methanol. Thereafter, 0.1 mL of the microbe suspension was coated onto the model examination cloth, and cultured for 24 hours in a petri dish using an incubator at 37° C. with relative humidity of 70%, to obtain a microbe-fixed cloth.
Further, the model examination cloth was analyzed by using LC-FL (liquid chromatography apparatus: HITACHI ELITE LaChrom (trade name, manufactured by Hitachi, Ltd.), column: Lichrosphere 100 RP-8(e) (trade name, manufactured by Agilent Technologies, Inc., 5 μm×125 mm×4 mmφ), column temperature: 40° C., eluent: a mixed solution of acetonitrile/water=7/3 (volume ratio), flow rate: 1.0 mL/min, detector: excitation wavelength (365 nm), measurement wavelength (412 nm)), and thereby quantification of 4M3H thus produced in the model examination cloth was carried out. Ratio of the produced 4M3H amount relative to the 4M3H production amount when no test substance was added was calculated, and then ratio of suppressing 4M3H production was calculated.

Compound | Bactericidal effect (Moraxella sp. KMC4-1 [1]) | Growth-inhibitory effect (Moraxella sp. KMC4-1 [2]) | Ratio of suppressing 4M3H production (Moraxella sp. KMC4-1 [3]) | 4M3H production inhibition ratio (Moraxella sp. KMC4-1 [3]) | Growth-inhibitory effect: bacteria number decrease compared to the control (Moraxella sp. KMC4-1 [2])
CCCCCCCCCC=O [Substance (1)] | C (the bacteria number decrease of less than log 1) | C (the bacteria number decrease of less than log 1) | 100% | high | –
CC(=O)OC(C)(C)Cc1ccccc1 [Substance (2)] | C (the bacteria number decrease of less than log 1) | B (the bacteria number decrease of log 1 or more but less than log 3) | 100% | high | 2 log
CNc1ccccc1C(=O)OC [Substance (3)] | C (the bacteria number decrease of less than log 1) | C (the bacteria number decrease of less than log 1) | 91% | high | –
CCCCCCCC/C=C\CCCCCCCC(=O)O [Substance (4)] | C (the bacteria number decrease of less than log 1) | B (the bacteria number decrease of log 1 or more but less than log 3) | 81% | high | 2 log
O=C[C@H](O)[C@@H](O)[C@H](O)[C@H](O)CO [Substance (5)] | C (the bacteria number decrease of less than log 1) | C (the bacteria number decrease of less than log 1) | 0% | – | –
